Measurements reported in ChEMBL document CHEMBL3112480, “γ-Alkylidene-γ-lactones and isobutylpyrrol-2(5H)-ones analogues to rubrolides as inhibitors of biofilm formation by gram-positive and gram-negative bacteria” (Bioorg Med Chem Lett, 2014).
Converted amounts (≈) assume the structure as drawn.

How the values were obtained:
[1] = system: Streptococcus mutans; experiment: Antibacterial activity against Streptococcus mutans ATCC 25175 assessed as effect on planktonic growth at 21.9 ug/ml after 20 hrs relative to control; type: functional
[2] = system: Staphylococcus aureus; experiment: Antibacterial activity against Staphylococcus aureus ATCC 25923 assessed as effect on planktonic growth at 43.8 ug/ml after 20 hrs relative to control; type: functional
[3] = system: Staphylococcus aureus; experiment: Antibacterial activity against Staphylococcus aureus ATCC 25923 assessed as effect on planktonic growth at 1.37 ug/ml after 20 hrs relative to control; type: functional
[4] = system: Staphylococcus aureus; experiment: Antibacterial activity against Staphylococcus aureus ATCC 25923 assessed as effect on planktonic growth at 21.9 ug/ml after 20 hrs relative to control; type: functional
[5] = system: Staphylococcus aureus; experiment: Antibacterial activity against Staphylococcus aureus ATCC 25923 assessed as effect on planktonic growth at 0.17 ug/ml after 20 hrs relative to control; type: functional
[6] = system: Pseudomonas aeruginosa; experiment: Antibacterial activity against Pseudomonas aeruginosa ATCC 27853 assessed as effect on planktonic growth at 0.34 ug/ml after 20 hrs relative to control; type: functional
[7] = system: Streptococcus mutans; experiment: Antibacterial activity against Streptococcus mutans ATCC 25175 assessed as effect on planktonic growth at 5.5 ug/ml after 20 hrs relative to control; type: functional
[8] = system: Pseudomonas aeruginosa; experiment: Antibacterial activity against Pseudomonas aeruginosa ATCC 27853 assessed as effect on planktonic growth at 21.9 ug/ml after 20 hrs relative to control; type: functional
[9] = system: Streptococcus mutans; experiment: Antibacterial activity against Streptococcus mutans ATCC 25175 assessed as effect on planktonic growth at 0.17 ug/ml after 20 hrs relative to control; type: functional
[10] = system: Staphylococcus aureus; experiment: Antibacterial activity against Staphylococcus aureus ATCC 25923 assessed as effect on planktonic growth at 87.5 ug/ml after 20 hrs relative to control; type: functional
[11] = system: Staphylococcus epidermidis; experiment: Antibacterial activity against Staphylococcus epidermidis ATCC 35547 assessed as effect on planktonic growth at 43.8 ug/ml after 20 hrs relative to control; type: functional
[12] = system: Pseudomonas aeruginosa; experiment: Antibacterial activity against Pseudomonas aeruginosa ATCC 27853 assessed as effect on planktonic growth at 1.37 ug/ml after 20 hrs relative to control; type: functional
[13] = system: Streptococcus mutans; experiment: Antibacterial activity against Streptococcus mutans ATCC 25175 assessed as effect on planktonic growth at 0.34 ug/ml after 20 hrs relative to control; type: functional
[14] = system: Staphylococcus aureus; experiment: Antibacterial activity against Staphylococcus aureus ATCC 25923 assessed as effect on planktonic growth at 0.68 ug/ml after 20 hrs relative to control; type: functional
[15] = system: Streptococcus mutans; experiment: Antibacterial activity against Streptococcus mutans ATCC 25175 assessed as effect on planktonic growth at 1.37 ug/ml after 20 hrs relative to control; type: functional
[16] = system: Streptococcus mutans; experiment: Antibacterial activity against Streptococcus mutans ATCC 25175 assessed as effect on planktonic growth at 2.73 ug/ml after 20 hrs relative to control; type: functional
[17] = system: Staphylococcus epidermidis; experiment: Antibacterial activity against Staphylococcus epidermidis ATCC 35547 assessed as effect on planktonic growth at 10.9 ug/ml after 20 hrs relative to control; type: functional
[18] = system: Staphylococcus epidermidis; experiment: Antibacterial activity against Staphylococcus epidermidis ATCC 35547 assessed as effect on planktonic growth at 2.73 ug/ml after 20 hrs relative to control; type: functional
[19] = system: Staphylococcus epidermidis; experiment: Antibacterial activity against Staphylococcus epidermidis ATCC 35547 assessed as inhibition of biofilm formation after 20 hrs by crystal-violet staining method; type: functional, organism-based; conditions: for IC50: ATCC 35547, 20 h
[20] = system: Pseudomonas aeruginosa; experiment: Antibacterial activity against Pseudomonas aeruginosa ATCC 27853 assessed as effect on planktonic growth at 2.73 ug/ml after 20 hrs relative to control; type: functional
[21] = system: Staphylococcus epidermidis; experiment: Antibacterial activity against Staphylococcus epidermidis ATCC 35547 assessed as effect on planktonic growth at 0.17 ug/ml after 20 hrs relative to control; type: functional
[22] = system: Pseudomonas aeruginosa; experiment: Antibacterial activity against Pseudomonas aeruginosa ATCC 27853 assessed as effect on planktonic growth at 0.17 ug/ml after 20 hrs relative to control; type: functional
[23] = system: Streptococcus mutans; experiment: Antibacterial activity against Streptococcus mutans ATCC 25175 assessed as effect on planktonic growth at 10.9 ug/ml after 20 hrs relative to control; type: functional
[24] = system: Pseudomonas aeruginosa; experiment: Antibacterial activity against Pseudomonas aeruginosa ATCC 27853 assessed as effect on planktonic growth at 5.5 ug/ml after 20 hrs relative to control; type: functional
[25] = system: Staphylococcus aureus; experiment: Antibacterial activity against Staphylococcus aureus ATCC 25923 assessed as effect on planktonic growth at 5.5 ug/ml after 20 hrs relative to control; type: functional
[26] = system: Streptococcus mutans; experiment: Antibacterial activity against Streptococcus mutans ATCC 25175 assessed as effect on planktonic growth at 0.68 ug/ml after 20 hrs relative to control; type: functional
[27] = system: Staphylococcus epidermidis; experiment: Antibacterial activity against Staphylococcus epidermidis ATCC 35547 assessed as effect on planktonic growth at 0.68 ug/ml after 20 hrs relative to control; type: functional
[28] = system: Staphylococcus aureus; experiment: Antibacterial activity against Staphylococcus aureus ATCC 25923 assessed as effect on planktonic growth at 0.34 ug/ml after 20 hrs relative to control; type: functional
[29] = system: Pseudomonas aeruginosa; experiment: Antibacterial activity against Pseudomonas aeruginosa ATCC 27853 assessed as effect on planktonic growth at 10.9 ug/ml after 20 hrs relative to control; type: functional
[30] = system: Staphylococcus epidermidis; experiment: Antibacterial activity against Staphylococcus epidermidis ATCC 35547 assessed as effect on planktonic growth at 0.34 ug/ml after 20 hrs relative to control; type: functional
[31] = system: Staphylococcus aureus; experiment: Antibacterial activity against Staphylococcus aureus ATCC 25923 assessed as effect on planktonic growth at 10.9 ug/ml after 20 hrs relative to control; type: functional
[32] = system: Staphylococcus epidermidis; experiment: Antibacterial activity against Staphylococcus epidermidis ATCC 35547 assessed as effect on planktonic growth at 1.37 ug/ml after 20 hrs relative to control; type: functional
[33] = system: Staphylococcus epidermidis; experiment: Antibacterial activity against Staphylococcus epidermidis ATCC 35547 assessed as effect on planktonic growth at 21.9 ug/ml after 20 hrs relative to control; type: functional
[34] = system: Staphylococcus epidermidis; experiment: Antibacterial activity against Staphylococcus epidermidis ATCC 35547 assessed as effect on planktonic growth at 5.5 ug/ml after 20 hrs relative to control; type: functional
[35] = system: Pseudomonas aeruginosa; experiment: Antibacterial activity against Pseudomonas aeruginosa ATCC 27853 assessed as effect on planktonic growth at 87.5 ug/ml after 20 hrs relative to control; type: functional
[36] = system: Staphylococcus epidermidis; experiment: Antibacterial activity against Staphylococcus epidermidis ATCC 35547 assessed as effect on planktonic growth at 87.5 ug/ml after 20 hrs relative to control; type: functional
[37] = system: Staphylococcus aureus; experiment: Antibacterial activity against Staphylococcus aureus ATCC 25923 assessed as effect on planktonic growth at 2.73 ug/ml after 20 hrs relative to control; type: functional
[38] = system: Pseudomonas aeruginosa; experiment: Antibacterial activity against Pseudomonas aeruginosa ATCC 27853 assessed as effect on planktonic growth at 0.68 ug/ml after 20 hrs relative to control; type: functional
[39] = system: Pseudomonas aeruginosa; experiment: Antibacterial activity against Pseudomonas aeruginosa ATCC 27853 assessed as effect on planktonic growth at 43.8 ug/ml after 20 hrs relative to control; type: functional
[40] = system: Pseudomonas aeruginosa; experiment: Antibacterial activity against Pseudomonas aeruginosa ATCC 27853 assessed as inhibition of biofilm formation after 20 hrs by crystal-violet staining method; type: functional, organism-based; conditions: for IC50: ATCC 27853, 20 h
[41] = system: Streptococcus mutans; experiment: Antibacterial activity against Streptococcus mutans ATCC 25175 assessed as effect on planktonic growth at 43.8 ug/ml after 20 hrs relative to control; type: functional
[42] = system: Streptococcus mutans; experiment: Antibacterial activity against Streptococcus mutans ATCC 25175 assessed as effect on planktonic growth at 87.5 ug/ml after 20 hrs relative to control; type: functional

SMILES: COc1ccccc1C1=C(Br)C(=O)O/C1=C\c1ccc(C(F)(F)F)cc1
- Activity [1]: 0.6%
- Activity [2]: 47.3%
- Activity [3]: -0.5%
- Activity [4]: 26.7%
- Activity [5]: -3.6%
- Activity [6]: -0.4%
- Activity [7]: -4.8%
- Activity [8]: 58%
- Activity [9]: -3.1%
- Activity [10]: 81.2%
- Activity [11]: 30.7%
- Activity [12]: -5.7%
- Activity [13]: 1.1%
- Activity [14]: -2.3%
- Activity [15]: -6.5%
- Activity [16]: -4%
- Activity [17]: 10.3%
- Activity [18]: 12.9%
- inhibition [19]: Dose-dependent effect
- IC50 [19]: > 87.5 µg/mL
- Activity [20]: -7%
- Activity [21]: -12.1%
- Activity [22]: -1.3%
- Activity [23]: -9.3%
- Activity [24]: 7.9%
- Activity [25]: 9.9%
- Activity [26]: -1.7%
- Activity [27]: -16.5%
- Activity [28]: -2%
- Activity [29]: 49.9%
- Activity [30]: -14.8%
- Activity [31]: 9.7%
- Activity [32]: 2.9%
- Activity [33]: 18.7%
- Activity [34]: -9.1%
- Activity [35]: 15.1%
- Activity [36]: 14.7%
- Activity [37]: 6.6%
- Activity [38]: -1.3%
- Activity [39]: 34.3%
- inhibition [40]: Dose-dependent effect
- IC50 [40]: > 87.5 µg/mL
- Activity [41]: 21.5%
- Activity [42]: 58.9%

SMILES: COc1ccccc1C1=C(Br)C(=O)N(CC(C)C)/C1=C\c1ccc(C(F)(F)F)cc1
- Activity [1]: -11.6%
- Activity [2]: -15.4%
- Activity [3]: -30.9%
- Activity [4]: -29.3%
- Activity [5]: -5.8%
- Activity [6]: -1.7%
- Activity [7]: -3%
- Activity [8]: 53.2%
- Activity [9]: 0.3%
- Activity [10]: 1.8%
- Activity [11]: 37.8%
- Activity [12]: -5.9%
- Activity [13]: 0.6%
- Activity [14]: -18.1%
- Activity [15]: 10.7%
- Activity [16]: 14%
- Activity [17]: 6.6%
- Activity [18]: -21.2%
- inhibition [19]: Dose-dependent effect
- IC50 [19]: 23 µg/mL (≈ 47.9 µM)
- Activity [20]: -9.2%
- Activity [21]: -22.1%
- Activity [22]: -2.1%
- Activity [23]: -12.9%
- Activity [24]: -1.7%
- Activity [25]: -33.5%
- Activity [26]: 5.5%
- Activity [27]: -13.2%
- Activity [28]: -14.7%
- Activity [29]: 35.6%
- Activity [30]: -17%
- Activity [31]: -33.8%
- Activity [32]: -17.9%
- Activity [33]: 38.7%
- Activity [34]: -14.8%
- Activity [35]: 35.2%
- Activity [36]: -6.3%
- Activity [37]: -35.6%
- Activity [38]: 0.1%
- Activity [39]: 44%
- inhibition [40]: Dose-dependent effect
- Activity [41]: -13.5%
- Activity [42]: 3.6%

SMILES: COc1ccc(Cl)cc1C1=C(Br)C(=O)O/C1=C\c1ccccc1Br
- Activity [1]: 22.8%
- Activity [2]: -2.9%
- Activity [3]: -14%
- Activity [4]: -8.3%
- Activity [5]: -7.9%
- Activity [6]: -5.3%
- Activity [7]: 8.6%
- Activity [8]: -13.4%
- Activity [9]: 19%
- Activity [10]: 14.6%
- Activity [11]: 42.5%
- Activity [12]: -7%
- Activity [13]: 5.6%
- Activity [14]: -10.6%
- Activity [15]: 4.5%
- Activity [16]: 4.1%
- Activity [17]: 12.1%
- Activity [18]: 2.9%
- inhibition [19]: Dose-dependent effect
- IC50 [19]: 48 µg/mL (≈ 102 µM)
- Activity [20]: -7.7%
- Activity [21]: 9.5%
- Activity [22]: -3.8%
- Activity [23]: 8.2%
- Activity [24]: -8.1%
- Activity [25]: -16.7%
- Activity [26]: 5.6%
- Activity [27]: 11.1%
- Activity [28]: -10%
- Activity [29]: -5.2%
- Activity [30]: 51.8%
- Activity [31]: -16.9%
- Activity [32]: 2.5%
- Activity [33]: 27.3%
- Activity [34]: 3.9%
- Activity [35]: -8.2%
- Activity [36]: 74.6%
- Activity [37]: -14.4%
- Activity [38]: -5.1%
- Activity [39]: -9.1%
- inhibition [40]: Dose-dependent effect
- IC50 [40]: 3.9 µg/mL (≈ 8.29 µM)
- Activity [41]: 26.9%
- Activity [42]: 57.5%
